# Results: PMC3750255, “Inhibition of Mycoplasma pneumoniae growth by FDA-approved anticancer and antiviral nucleoside and nucleobase analogs” (BMC Microbiology, 2013)
# Assays:
# [1] = test system: M. pneumoniae thyA mutant (lacking TS activity); test: microbe, parasite or virus in culture; format: cell-based, Mycoplasma pneumoniae; conditions: Mycoplasmoides pneumoniae, read-out: thyA mutant MIC
# Experimental: (§1) A series dilution of each compound in Mycoplasma growth medium was added to Mpn cultures in 96-well plates. The plates were sealed and incubated at 37°C. Mpn growth was monitored by using growth index value e.g. the ratio of absorbance at 450 nm and 560 nm of the culture medium. Thirty nucleoside and nucleobase analogs and a nucleoside transporter inhibitor were included, and two Mpn strains, wild type and a thyA mutant (lacking TS activity), were used.
# (§2) Nucleoside and nucleobase analogs were dissolved in dimethyl sulfoxide (DMSO) as stock solutions and diluted with Mpn culture medium to the desired concentration immediately prior to use.
# (§3) Mpn laboratory strain M129 wild type and a thyA mutant strain [31] were used in this study. Mpn was cultured at 37°C in a CO2 incubator using 75 cm^2 tissue culture flasks containing 50 ml Hayflick’s medium, and harvested at day 4 when the medium color change was observed. The cells were harvested and the pellet was resuspended in 6 ml fresh medium and the cfu/ml was determined by serial dilution (10-fold) and plating on broth agar plate. Colonies was counted and cfu/ml was calculated.
# (§4) Inhibition studies were performed in 96-well plates containing 200 μl Mpn culture (approximately 10^6 cfu ml^-1) in Hayflick’s medium and 200 μl each compound in series dilutions (2-fold) with the growth medium, with three to four replicas. The plates were sealed with clear adhesive sheets and incubated at 37°C incubator. Absorbance ratio at 450 nm and 560 nm was used as Mpn growth index, which was measured daily, and by visual detection for at least 8 days, as previously described. […] The MICs (minimal inhibitory concentration required to inhibit Mpn growth to 90%) were determined as the lowest concentration at which the growth index was ≈ 10% of the control values (at the time when the control culture medium color turned yellow), essentially as described.
# [2] = test system: M. pneumoniae wild type (laboratory strain M129); test: Mpn growth inhibition in 96-well plates (growth index A450/A560), wild type strain; format: cell-based, Mycoplasma pneumoniae; conditions: Mycoplasmoides pneumoniae, read-out: Wild type MIC
# Experimental: as §1, §2, §3, §4
# Ureaplasma TK = biological target: T1, Ureaplasma TK (Ureaplasma parvum serovar 3, UniProt Q9PPP5); test: Thymidine kinase inhibition with [3H]-dT as substrate; format: biochemical; conditions: 10 μM tritium labelled thymidine
# T1 construct: made in house
# T1 sequence (Q9PPP5 1-223): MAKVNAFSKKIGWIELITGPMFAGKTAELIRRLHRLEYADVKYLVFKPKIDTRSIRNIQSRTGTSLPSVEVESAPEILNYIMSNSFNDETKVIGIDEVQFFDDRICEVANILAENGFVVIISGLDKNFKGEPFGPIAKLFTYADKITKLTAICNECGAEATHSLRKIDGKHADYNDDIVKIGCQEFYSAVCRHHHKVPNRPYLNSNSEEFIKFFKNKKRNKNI
# Experimental: (§5) Thymidine kinase assay was performed using tritium labelled thymidine ([^3H]-dT) as substrate and various concentrations of the inhibitors essentially as previously described to determine the IC50 values of TFT and 5FdU.
# human TK1 = biological target: T2, human TK1 (Homo sapiens, UniProt P04183); test: as above; format: biochemical; conditions: 10 μM tritium labelled thymidine
# T2 construct: made in house
# T2 sequence (P04183 1-234): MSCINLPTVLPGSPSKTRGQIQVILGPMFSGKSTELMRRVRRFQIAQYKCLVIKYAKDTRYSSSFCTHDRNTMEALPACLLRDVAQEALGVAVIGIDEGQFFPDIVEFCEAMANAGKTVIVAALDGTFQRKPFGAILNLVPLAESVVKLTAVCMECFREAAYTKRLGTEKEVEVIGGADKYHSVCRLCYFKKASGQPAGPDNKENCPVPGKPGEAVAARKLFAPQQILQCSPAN
# Experimental: as §5
# human TK2 = biological target: T3, human TK2 (Homo sapiens, UniProt O00142); test: as above; format: biochemical; conditions: 10 μM tritium labelled thymidine
# T3 construct: made in house
# T3 sequence (O00142 34-265): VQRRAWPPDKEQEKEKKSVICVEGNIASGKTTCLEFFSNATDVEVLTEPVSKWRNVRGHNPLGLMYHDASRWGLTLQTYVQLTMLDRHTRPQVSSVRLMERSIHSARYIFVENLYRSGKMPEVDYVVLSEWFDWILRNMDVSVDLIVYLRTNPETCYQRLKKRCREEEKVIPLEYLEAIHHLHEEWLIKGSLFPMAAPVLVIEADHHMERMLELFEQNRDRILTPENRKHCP
# Experimental: as §5
# TK in Mpn extracts = biological target: T4, TK in Mpn extracts (Mycoplasmoides pneumoniae, UniProt P75070); test: Inhibition of dT phosphorylation in Mpn protein extracts; format: biochemical
# T4 construct: endogenous in cells; host or cells: Mycoplasma pneumoniae M129 total protein extract
# T4 sequence (P75070 1-191): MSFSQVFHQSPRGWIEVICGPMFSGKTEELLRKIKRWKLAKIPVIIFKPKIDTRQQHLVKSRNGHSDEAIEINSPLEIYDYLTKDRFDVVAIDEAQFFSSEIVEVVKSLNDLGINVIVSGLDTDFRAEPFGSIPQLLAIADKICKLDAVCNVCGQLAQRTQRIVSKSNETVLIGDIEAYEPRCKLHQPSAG
# Experimental: Both TFT and 5FdU are substrates of Mycoplasma and human TKs, as described above and earlier studies.
# as §5
# Mpn wild type cells = test: Uptake and metabolism of tritium labelled natural nucleoside and nucleobases in the presence of analogs; format: cell-based, Mycoplasma pneumoniae
# Experimental: The cells were harvested and analyzed essentially as described. Analogs used were dipyridamole, 6-thioguanine (6-TG), trifluorothymidine (TFT), gemcitabine (dFdC) and 5-fluorodeoxyuridine (5FdU). Total uptake is the percent of radioactivity recovered in the cells divided by total radioactivity added to the growth medium. Percent of acid insoluble (radioactivity found in DNA and RNA) was also calculated. These experiments were done more than three times and data are given as mean ± SD.
# [3] = substrate: O=c1[nH]cnc2nc[nH]c12; test: purified protein, by the assay type; conditions: other: as substrate of Mpn HPRT, Michaelis-Menten; pH 7.5; 37.0 °C
# [4] = 10 μM analog, 70 hours, 37°C, radioactivity in cells / total added
# [5] = 10 μM analog, 70 hours, acid insoluble fraction / total in cells
Molecule,MIC [1] [µg/mL],MIC [2] [µg/mL],IC50 (Ureaplasma TK) [µM],IC50 (human TK1) [µM],IC50 (human TK2) [µM],IC50 (TK in Mpn extracts) [µM],Stimulation of [3H]-dT uptake (Mpn wild type cells; 10 μM analog versus control) [fold],[3H]-Ade Total uptake (Mpn wild type cells; [4]) [%],[3H]-Gua Total uptake (Mpn wild type cells; [4]) [%],[3H]-Hx Total uptake (Mpn wild type cells; [4]) [%],[3H]-Ura Total uptake (Mpn wild type cells; [4]) [%],[3H]-dT Total uptake (Mpn wild type cells; [4]) [%],[3H]-Ade Incorporation (Mpn wild type cells; [5]) [%],[3H]-Gua Incorporation (Mpn wild type cells; [5]) [%],[3H]-Hx Incorporation (Mpn wild type cells; [5]) [%],[3H]-Ura Incorporation (Mpn wild type cells; [5]) [%],[3H]-dT Incorporation (Mpn wild type cells; [5]) [%],Km [3] [µM]
"O=c1[nH]c(=O)n([C@H]2C[C@H](O)[C@@H](CO)O2)cc1F [5-fluorodeoxyuridine (5FdU), 5-fluorodeoxyuridine]",15.6,7.8,1000 ± 13.3,75.9 ± 2.6,158 ± 2.7,47.9 ± 1.2,2,0.36±0.1,0.16±0.03,0.006± 0.001,0.087±0.003,14.7±0.2,42±2,87±3,76±4,19±7,96.0±0.5,
Mpn HPRT (Mycoplasmoides pneumoniae M129) (protein) MGIKSIIIDQKQVEAGCNAALKWCNEHFAGKQVIVLGILKGCIPFLGKLISQFTFDLQLDFVAVASYHGGSRQQEAPKIVLDMSHDPKGKDILLIEDIVDSGRSIKLVLDLLHTRKAKSVILVSFIEKLKPREADIKVDYSCFKNQDEFLVGFGLDYQGFYRNLPYVGVFDPEDN,,,,,,,,,,,,,,,,,,100.1 ± 6.5
